Test results reported in patent US10028942B2 (priority 2013, dated 2018).

These molecules were tested against T1, DLK (Homo sapiens, UniProt Q12852). Details: read-out: DLK (Ki) μM; TR-FRET; 5 nM GST-tagged DLK (catalytic domain aa 1-520), 40 nM HIS-MKK4 K131M substrate, 30 μM ATP, 60 minutes.
T1 sequence (Q12852 1-520): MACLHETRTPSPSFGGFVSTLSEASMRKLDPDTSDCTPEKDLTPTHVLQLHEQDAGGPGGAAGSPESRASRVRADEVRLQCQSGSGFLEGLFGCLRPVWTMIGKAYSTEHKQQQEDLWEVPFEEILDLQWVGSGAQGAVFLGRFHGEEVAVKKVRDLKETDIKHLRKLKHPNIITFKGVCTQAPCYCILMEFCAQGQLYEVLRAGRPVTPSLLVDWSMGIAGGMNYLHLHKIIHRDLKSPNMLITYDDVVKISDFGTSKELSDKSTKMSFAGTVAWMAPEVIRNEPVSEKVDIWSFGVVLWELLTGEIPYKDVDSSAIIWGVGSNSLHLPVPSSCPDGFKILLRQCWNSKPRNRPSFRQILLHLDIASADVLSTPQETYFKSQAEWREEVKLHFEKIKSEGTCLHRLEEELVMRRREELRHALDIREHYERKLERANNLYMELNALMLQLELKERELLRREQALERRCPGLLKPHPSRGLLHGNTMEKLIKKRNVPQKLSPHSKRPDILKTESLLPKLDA

First: CC(CC#N)N1C[C@@H]2[C@H](C1)[C@H]2c1cc(-c2cnc(N)c(C(F)(F)F)c2)nn1C(C)C (stereo partly drawn) [Compound 131, 3-((1R,5S,6r)-6-(3-(6-amino-5-(trifluoro-methyl)pyridin-3-yl)-1-isopropyl-1H-pyrazol-5-yl)-3-azabicyclo[3.1.0]hexan-3-yl)butanenitrile]
Second: CC(C)n1nc(-c2cnc(N)c(C#N)c2)cc1[C@H]1[C@@H]2CN(C3COC3)C[C@@H]21 [Compound 144, 2-amino-5-(1-isopropyl-5-((1R,5 S,6r)-3-(oxetan-3-yl)-3-azabicyclo[3.1.0]hexan-6-yl)-1H-pyrazol-3-yl)nicotinonitrile]
The Ki of the first is 5-fold lower: 0.0044 µM for the first, 0.022 µM for the second. The first binds more tightly here.

First: CC(C)n1nc(-c2cnc3[nH]cc(C#N)c3c2)cc1[C@H]1[C@@H]2CN(C3COC3)C[C@@H]21 [Compound 132, 5-(1-isopropyl-5-((1R,5S,6r)-3-(oxetan-3-yl)-3-azabicyclo[3.1.0]hexan-6-yl)-1H-pyrazol-3-yl)-1H-pyrrolo[2,3-b]pyridine-3-carbonitrile]
Second: CC(C)n1nc(-c2cnc3[nH]cc(C(F)(F)F)c3c2)cc1[C@H]1[C@@H]2CN(C3COC3)C[C@@H]21 [Compound 133, 5-(1-isopropyl-5-((1R,5S,6r)-3-(oxe-tan-3-yl)-3-azabicyclo[3.1.0]hexan-6-yl)-1H-pyrazol-3-yl)-3-(trifluorometh-yl)-1H-pyrrolo[2,3-b]pyridine]
The Ki of the first is 62-fold higher: 0.025 µM for the first, 0.0004 µM for the second. The second binds more tightly here.

Compared with `Nc1ncc(-c2cc([C@H]3[C@@H]4CN(C5COC5)C[C@@H]43)n(C3CCCC3)n2)cc1C(F)(F)F` [Compound 135, 5-(1-cyclopentyl-5-((1R,5S,6r)-3-(oxetan-3-yl)-3-azabicyclo[3.1.0]hexan-6-yl)-1H-pyrazol-3-yl)-3-(trifluoromethyl)pyridin-2-amine], `Nc1ncc(-c2cc([C@H]3[C@@H]4CN(C5COC5)C[C@@H]43)n(C3CCC3)n2)cc1C(F)(F)F` [Compound 148, 5-(1-cyclobutyl-5-((1R,5S,6r)-3-(oxetan-3-yl)-3-azabicyclo[3.1.0]hexan-6-yl)-1H-pyrazol-3-yl)-3-(trifluoromethyl)pyridin-2-amine] is 7.4-fold lower in Ki: 0.0089 µM for the first, 0.0012 µM for the second.

`Nc1ncc(-c2cc([C@H]3[C@@H]4CN(C5COC5)C[C@@H]43)n(C3CCCC3)n2)cc1Cl` [Compound 136, 3-chloro-5-(1-cyclopentyl-5-((1R,5S,6r)-3-(oxetan-3-yl)-3-azabicyclo [3.1.0]hexan-6-yl)-1H-pyrazol-3-yl) pyridin-2-amine] and `Nc1ncc(-c2cc([C@H]3[C@@H]4CN(C5COC5)C[C@@H]43)n(C3CCC3)n2)cc1Cl` [Compound 147, 3-chloro-5-(1-cyclobutyl-5-((1R,5S,6r)-3-(oxetan-3-yl)-3-azabicyclo[3.1.0]hexan-6-yl)-1H-pyrazol-3-yl)pyri-din-2-amine] are within 1.5-fold of each other in Ki: 0.024 µM for the first, 0.018 µM for the second.

`Nc1ncc(-c2cc([C@H]3[C@@H]4CN(C5COC5)C[C@@H]43)n(C3CCCC3)n2)cc1OC(F)F` [Compound 137, 5-(1-cyclopentyl-5-((1R,5S,6r)-3-(oxe-tan-3-yl)-3-azabicyclo[3.1.0]hexan-6-yl)-1H-pyrazol-3-yl)-3-(difluoro-methoxy)pyridin-2-amine] and `Nc1ncc(-c2cc([C@H]3[C@@H]4CN(C5COC5)C[C@@H]43)n(C3CCC3)n2)cc1OC(F)F` [Compound 151, 5-(1-cyclobutyl-5-((1R,5S,6r)-3-(oxe-tan-3-yl)-3-azabicyclo[3.1.0]hexan-6-yl)-1H-pyrazol-3-yl)-3-(difluorometh-oxy)pyridin-2-amine] are within 1.5-fold of each other in Ki: 0.0074 µM for the first, 0.0055 µM for the second.

`N#Cc1cc(-c2cc([C@H]3[C@@H]4CN(C5COC5)C[C@@H]43)n(C3CCCC3)n2)cnc1N` [Compound 138, 2-amino-5-(1-cyclopentyl-5-((1R,5S,6r)-3-(oxetan-3-yl)-3-azabicyclo[3.1.0]hexan-6-yl)-1H-pyrazol-3-yl)nicoti-nitrile] and `COc1cc(-c2cc([C@H]3[C@@H]4CN(C5COC5)C[C@@H]43)n(C3CCCC3)n2)cnc1N` [Compound 157, 5-(1-cyclopentyl-5-((1R,5S,6r)-3-(oxe-tan-3-yl)-3-azabicyclo[3.1.0]hexan-6-yl)-1H-pyrazol-3-yl)-3-methoxy-pyridin-2-amine] are within 1.5-fold of each other in Ki: 0.031 µM for the first, 0.035 µM for the second.

Compared with `Nc1ncc(-c2cc([C@H]3[C@@H]4CN(C5COC5)C[C@@H]43)n(C3CCCC3)n2)cc1C1CC1` [Compound 139, 5-(1-cyclopentyl-5-((1R,5S,6r)-3-(oxe-tan-3-yl)-3-azabicyclo[3.1.0]hexan-6-yl)-1H-pyrazol-3-yl)-3-cyclopro-pylpyridin-2-amine], `Nc1ncc(-c2cc([C@H]3[C@@H]4CN(C5COC5)C[C@@H]43)n(C3CCC3)n2)cc1C1CC1` [Compound 153, 5-(1-cyclobutyl-5-((1R,5S,6r)-3-(oxe-tan-3-yl)-3-azabicyclo[3.1.0]hexan-6-yl)-1H-pyrazol-3-yl)-3-cyclopropyl-pyridin-2-amine] is 3.4-fold lower in Ki: 0.037 µM for the first, 0.011 µM for the second. The second binds more tightly here.

First: CC(C)n1nc(-c2cnc(N)c(Cl)c2)cc1[C@H]1[C@@H]2CN(C3COC3)C[C@@H]21 [Compound 140, 3-chloro-5-(1-isopropyl-5-((1R,5S,6r)-3-(oxetan-3-yl)-3-azabicyclo[3.1.0]hexan-6-yl)-1H-pyrazol-3-yl)pyridin-2-amine]
Second: COc1cc(-c2cc([C@H]3[C@@H]4CN(C5COC5)C[C@@H]43)n(C(C)C)n2)cnc1N [Compound 145, 5-(1-isopropyl-5-((1R,5S,6r)-3-(oxetan-3-yl)-3-azabicyclo[3.1.0]hexan-6-yl)-1H-pyrazol-3-yl)-3-methoxy-pyridin-2-amine]
The Ki of the first is 5.4-fold higher: 0.04 µM for the first, 0.0074 µM for the second. The second binds more tightly here.

Going from `CC(C)n1nc(-c2cnc(N)c(OC(F)F)c2)cc1[C@H]1[C@@H]2CN(C3COC3)C[C@@H]21` [Compound 141, 3-(difluoromethoxy)-5-(1-isopropyl-5-((1R,5S,6r)-3-(oxetan-3-yl)-3-aza-bicyclo[3.1.0]hexan-6-yl)-1H-pyrazol-3-yl)pyridin-2-amine] to `CC(C)n1nc(-c2cnc(N)c(C(F)F)c2)cc1[C@H]1[C@@H]2CN(C3COC3)C[C@@H]21` [Compound 158, 3-(difluoromethyl)-5-(1-isopropyl-5-((1R,5S,6r)-3-(oxetan-3-yl)-3-azabi-cyclo[3.1.0]hexan-6-yl)-1H-pyrazol-3-yl)pyridin-2-amine], the Ki rises from 0.008 µM to 0.035 µM (4.4-fold).

`CC(C)n1nc(-c2cnc(N)c(C3CC3)c2)cc1[C@H]1[C@@H]2CN(C3COC3)C[C@@H]21` [Compound 142, 3-cyclopropyl-5-(1-isopropyl-5-((1R,5S,6r)-3-(oxetan-3-yl)-3-azabicyclo [3.1.0]hexan-6-yl)-1H-pyrazol-3-yl) pyridin-2-amine] and `Nc1ncc(-c2cc([C@H]3[C@@H]4CN(C5COC5)C[C@@H]43)n(CC3CC3)n2)cc1C1CC1` [Compound 161, 3-cyclopropyl-5-(1-(cyclopropylmeth-yl)-5-((1R,5S,6r)-3-(oxetan-3-yl)-3-azabicyclo[3.1.0]hexan-6-yl)-1H-pyrazol-3-yl)pyridin-2-amine] are within 1.5-fold of each other in Ki: 0.022 µM for the first, 0.021 µM for the second.

First: CC(C)Oc1cc(-c2cc([C@H]3[C@@H]4CN(C5COC5)C[C@@H]43)n(C(C)C)n2)cnc1N [Compound 146, 3-isopropoxy-5-(1-isopropyl-5-((1R,5S,6r)-3-(oxetan-3-yl)-3-azabicyclo [3.1.0]hexan-6-yl)-1H-pyrazol-3-yl) pyridin-2-amine]
Second: CC(C)Oc1cc(-c2cc([C@H]3[C@@H]4CN(C5COC5)C[C@@H]43)n(C3CCCC3)n2)cnc1N [Compound 156, 5-(1-cyclopentyl-5-((1R,5S,6r)-3-(oxe-tan-3-yl)-3-azabicyclo[3.1.0]hexan-6-yl)-1H-pyrazol-3-yl)-3-isopropoxy-pyridin-2-amine]
The Ki of the first is 2.3-fold lower: 0.014 µM for the first, 0.032 µM for the second.

Going from `Nc1ncc(-c2cc([C@H]3[C@@H]4CN(C5COC5)C[C@@H]43)n(CC3CC3)n2)cc1C(F)(F)F` [Compound 152, 5-(1-(cyclopropylmethyl)-5-((1R,5S,6r)-3-(oxetan-3-yl)-3-azabicyclo[3.1.0]hexan-6-yl)-1H-pyrazol-3-yl)-3-(tri-fluoromethyl)pyridin-2-amine] to `Nc1ncc(-c2cc([C@H]3[C@@H]4CN(C5COC5)C[C@@H]43)n(CC3CCC3)n2)cc1C(F)(F)F` [Compound 160, 5-(1-(cyclobutylmethyl)-5-((1R,5S,6r)-3-(oxetan-3-yl)-3-azabicyclo[3.1.0]hexan-6-yl)-1H-pyrazol-3-yl)-3-(tri-fluoromethyl)pyridin-2-amine], the Ki rises from 0.00017 µM to 0.0081 µM (48-fold). The first binds more tightly here.

First: Nc1ncc(-c2cc([C@H]3[C@@H]4CN(C5COC5)C[C@@H]43)n(CC3CC3)n2)cc1Cl [Compound 154, 3-chloro-5-(1-(cyclopropylmethyl)-5-((1R,5S,6r)-3-(oxetan-3-yl)-3-azabicyclo[3.1.0]hexan-6-yl)-1H-pyrazol-3-yl)pyridin-2-amine]
Second: Nc1ncc(-c2cc([C@H]3[C@@H]4CN(C5COC5)C[C@@H]43)n(CC3CCC3)n2)cc1C1CC1 [Compound 162, 5-(1-(cyclobutylmethyl)-5-((1R,5S,6r)-3-(oxetan-3-yl)-3-azabicyclo[3.1.0]hexan-6-yl)-1H-pyrazol-3-yl)-3-cyclopropylpyridin-2-amine]
The Ki of the first is 2.6-fold lower: 0.025 µM for the first, 0.066 µM for the second.

`CS(=O)(=O)c1cc(-c2cc([C@H]3[C@@H]4CN(C5COC5)C[C@@H]43)n(C3CCCC3)n2)cnc1N` [Compound 155, 5-(1-cyclopentyl-5-((1R,5S,6r)-3-(oxe-tan-3-yl)-3-azabicyclo[3.1.0]hexan-6-yl)-1H-pyrazol-3-yl)-3-(methyl-sulfonyl)pyridin-2-amine] showed a Ki of 0.3 µM.
